Test results published in patent US20030143228A1, “Human telomerase reverse transcriptase as a class-II restricted tumor-associated antigen” (Baylor College of Medicine, priority 2001, published 2003).
“Also recorded” adds a separate entry of the source.

Tests used:
Format in all cases: cell-based, human
[1] = test system: Donor's peripheral blood mononuclear cells (PBMCs); test: Peptide T-cell proliferation assay with donor PBMC; conditions: peptide 20 μg/ml; positive if cpm at least 2.5 times PBMC without peptide
Protocol: Donor's peripheral blood mononuclear cells (PBMCs) were plated in 96-well plates (Costar) at 200,000 cells/well in AIM-V media (Gibco). Peptides were added into each well at the concentration of 20 μg/ml. After a week of incubation, the culture medium was removed and cells were resuspended in AIM-V media, seeded onto test plates and re-stimulated with autologous irradiated (2,000-6,000 rads) PBMC pulsed with the same peptides used in the primary stimulation (20 μg/ml). On day 2 of the re-stimulation, [^3H]-thymidine (1 uCi/well) was added to the test plates, and its incorporation by T-cells was measured on day 3. […] T-cell clones were established from positive T-cell lines by limiting dilution.
Because Th cells generally prefer to recognize peptides of about 15 residues in length, ten predicted peptides corresponding to promiscuous binding motifs of 15 mer or longer were synthesized and purified (Table 2). Human T-cell responses to these peptides were assessed by isolating PBMC from HLA-typed healthy donors with HLA-DR1, DR3, DR15, or other alleles and seeding them into 96-well plates that were subsequently stimulated with each peptide. After a week of stimulation, the cultures were tested for their capacity to respond to the peptides presented by autologous PBMC.

[2] = test system: peptide-specific CD4+ T-cell clones; test: Specificity and MHC restriction of peptide-specific T-cell clones (antibody blocking)
Protocol: The T916-positive T-cell clone, T631-positive T-cell or T672-positive T-cell (2×10^4 cells/well) were re-stimulated with autologous PBMC-derived DC (1×10^3/well) (Zhou et al., 1996) pulsed with T916, T631, T672 or irrelevant 15-mer peptides derived from HER-2 (SEQ.ID.NO.78, LSTDVGSCTLVCPLH) and EBV (SEQ.ID.NO.79, AYFMVFLQTHIFAEV) at the same concentration of 20 μg/ml in the presence of anti-HLA-DR (G46.4), anti-HLA-ABC (class I, G46.2.6), anti-CD4, or anti-CD8 (20 μg/ml, BD PharMingen). 48-72 hr later, GM-CSF release and [^3H]-thymidine incorporation of the T-cells were measured.
Further, antibody blocking assays were used to test whether the T-cell responses to peptides were MHC class II-restricted. […] Flow cytometric analysis of the responses to T-cell clones (FIG. 14A-FIG. 14F) confirmed clones were CD4-positive and CD 8-negative.

[3] = test system: peptide-specific CD4+ T-cell clones; test: Peptide titration of T-cell clones; conditions: autologous PBMCs
Protocol: To evaluate the avidity of hTRT916 and hTRT672 T-cell clones for their ligands, peptide titration curves were generated with autologous PBMCs. The maximal cell proliferation of the hTRT916 T-cell clone was obtained at a peptide concentration of 10 μg/ml, compared with only at a peptide concentration of 1 μg/ml for the hTRT672 T-cell clone (FIG. 7).
Yet further, the avidity of the hTRT631 T-cell clone for its ligand was also evaluated. Peptide titration curves were generated with autologous PBMCs. The half maximal cell proliferation of the hTRT631 T-cell clone was obtained at a peptide concentration of 0.1 μg/ml (FIG. 8).
The effectiveness of antitumor immunotherapy based on CD8+ and CD4+ T-cells depends on the ability of the latter to recognize naturally processed antigen presented by APC. This property depends in turn on correct processing of the epitope in the MHC class II pathway and the avidity of the epitope for its MHC/TCR-complex (Kobayashi, 2000). To determine whether the newly identified peptides were naturally processed antigens, the avidity of the specific T-cell clones for their ligands was evaluated. Peptide titration curves were generated with autologous DC as APC. For peptides hTRT631, hTRT766, hTRT787, the peptide concentrations required to obtain half of the maximal proliferation exceeded 1.0 μM (FIG. 15A-FIG. 15F).

recombinant hTRT protein = test: T-cell recognition of natively processed hTRT protein presented by autologous DC
Excerpt: A recombinant hTRT protein and an irrelevant Neu protein were produced and used to pulse PBMC-derived DC. Recombinant hTRT and Neu(extracellular domain)-Fc fusion proteins, were produced in SF9 insect cells by use of a baculovirus expression system (Gibco), purified by affinity binding to Protein A (Sigma), and tested by Western blot analysis with anti-hTRT (Santa Cruz) or anti-Neu (Oncogene) antibodies, respectively.
The T916-specific T-cells, T631-specific T-cells or T672-specific T-cells (2×10^4/well) were stimulated with irradiated autologous PBMC-derived DC (Zhou et al., 1996) (2×10^3/well) pulsed with recombinant hTRT-Fc proteins (1 μg/ml) in the presence or absence of anti-HLA-DR antibodies (20 μg/ml). The T-cell clones were also stimulated with DC pulsed with irrelevant recombinant Neu-Fc proteins (1 μg/ml). Recombinant hTRT Fc fusion proteins and Neu (extracellular domain)-Fc proteins were produced from […], purified with a Protein-A purification kit (Pierce), and confirmed by Western blot analysis with anti-hTRT (Santa Cruz) or anti-Neu (Oncogene) antibodies. 48 hr later, [^3H]-thymidine incorporation of the T-cells was then measured.
The ability of these T-cell clones to recognize naturally processed antigen in the form of recombinant hTRT protein was tested in experiments in which autologous PBMC or DC were used as APC and recombinant hTRT proteins as a source of antigen (FIG. 16).

HLA-DR7+/hTRT+ LCL cells = test: T-cell direct responses to hTRT-positive cells
Protocol: The T-cells (5×10^3/well) were co-cultured with the irradiated HLA-DR7+/hTRT+ LCL cells (1×10^4/well) in the presence or absence of the anti-HLA-DR antibody (20 μg/ml). IFN-γ production of the T-cells was monitored by ELISPOT assay and cell proliferation was measured by [^3H]-thymidine incorporation compared with anti-DR sample.

T-cell clone = test: Flow cytometric analysis of T-cell clones; conditions: peptide-specific T-cell clone, anti-CD4-FITC / CD8-PE staining
Excerpt: The T-cell clone was double-stained with anti-human CD4-FITC and CD8-PE antibodies or isotype controls (mouse IgG-FITC and IgG-PE) (BD PharMingen). The cells were then examined by flow cytometric analysis (Chen et al., 1997). More than 99% of the T-cell population were CD4-positive. Flow cytometric analysis verified that the T-cell clones were exclusively CD4-positive (FIG. 9A and FIG. 9B). Similar results were obtained from four different T916-specific T-cell clones. Taken together, the findings indicate that HLA-DR7-restricted epitopes reside in clones 8 and 35 and induce hTRT-specific human CD4+ T-cell responses.

[4] = test system: T-cells primed by the pool 5-transduced DC; test: DC-based immunogenetic screening of tumor retrogen library, [3H]-thymidine incorporation; conditions: T-cells 2×10^5, DC 2×10^4
Protocol: cDNA from the mRNA of prostate tumor cells (DU145) were generated by cDNA synthesis kits (CLONTECH). cDNA with sizes of 400 bp or higher were digested with Sau3A I (Bio-Lab) after fractionation with SizeSep™ 400 columns (Amersham Pharmacia Biotech) and inserted into the BamH I-cut pSBFc-DS. Ligated DNA was then transformed into E. coli, and library quality was confirmed by examining dozens of individual clones with different insert sizes and DNA sequences. Individual colonies were then cultured individually and pooled for the isolation of plasmid DNA. Recombinant retroviral retrogen vectors (pools) were generated by transfection of the plasmid DNA pools into packaging cells with GeneJammer (Stratagene). Two or three days later, the culture medium containing the retroviral vectors was harvested, filtered, and then used for DC transduction or stored at −80° C.
DC-based immunogenetic screening approach was used to identify unknown class II-restricted TAA from a tumor retrogen library.
After several rounds of screening of 12,000 individual clones in the library, two sub-pools (5-VI-C and -D) containing genes capable of stimulating CD4+ T-cells were identified. The 40 individual clones in the sub-pools 5-VI-C and -D were individually transduced into autologous CD34+-derived DC. […]

Molecule | proliferative T-cell responses from the donors' T-cells [1] | response of T-cells to autologous PBMC pulsed with peptide [2] | response of the peptide-specific T-cells to irrelevant peptides ([2]; irrelevant 15-mer peptides (HER-2, EBV/EBNA1) or non-corresponding hTRT peptides, 20 μg/ml) | restriction of T-cell response (antibody blocking) ([2]; peptide-pulsed autologous APC with anti-HLA-DR, anti-HLA class I, anti-HLA-DQ, anti-CD4 or anti-CD8 antibodies) | peptide concentration at maximal cell proliferation of the T-cell clone [3] [µg/mL] | epitope classification (naturally processed or cryptic) (recombinant hTRT protein) | response of peptide-specific T-cells to irrelevant Neu protein presented by autologous DC (recombinant hTRT protein; Neu-Fc 1 μg/ml) | recognition of hTRT protein after processing and presentation by autologous APC (recombinant hTRT protein; peptide-specific T-cell clone, DC or PBMC pulsed with recombinant hTRT protein) | response of peptide-specific CD4+ T-cells to hTRT+/DR7+ LCL (HLA-DR7+/hTRT+ LCL cells; IFN-γ ELISPOT and [3H]-thymidine incorporation) | effect of anti-HLA-DR antibody on T-cell response to hTRT+/DR7+ LCL (HLA-DR7+/hTRT+ LCL cells; antibody 20 μg/ml) | response of peptide-specific CD4+ T-cells to hTRT+ LCL (DR3+) (HLA-DR7+/hTRT+ LCL cells; different class II genotype) | T-cell population CD4-positive (T-cell clone) | T-cell response to autologous DC transduced with individual clones [4]
GTAFVQMPAHGLFPW [Peptide T916] | elicited proliferative T-cell responses | dosage-dependent manner | did not respond | both CD4- and HLA-DR-restricted; also recorded: MHC-II restricted epitopes | 10 | are processed | did not respond | recognize the hTRT proteins | active proliferation and production of INF-γ | drastically inhibited | did not respond | More than 99% | –
clone 35: positive clone of the DU145 tumor retrogen library; ORF encodes a 171 aa hTRT polypeptide (SEQ.ID.NO.4) (nucleic acid, Human) DNA: ATCCCGCAGGGCTCCATCCTCTCCACGCTGCTCTGCAGCCTGTGCTACGGCGACATGGAGAACAAGCTGTTTGCGGGGATTCGGCGGGACGGGCTGCTCCTGCGTTTGGTGGATGATTTCTTGTTGGTGACACCTCACCTCACCCACGCGAAAACCTTCCTCAGGACCCTGGTCCGAGGTGTCCCTGAGTATGGCTGCGTGGTGAACTTGCGGAAGACAGTGGTGAACTTCCCTGTAGAAGACGAGGCCCTGGGTGGCACGGCTTTTGTTCAGATGCCGGCCCACGGCCTATTCCCCTGGTGCGGCCTGCTGCTGGATACCCGGACCCTGGAGGTGCAGAGCGACTACTCCAGCTATGCCCGGACCTCCATCAGAGCCAGTCTCACCTTCAACCGCGGCTTCAAGGCTGGGAGGAACATGCGTCGCAAACTCTTTGGGGTCTTGCGGCTGAAGTGTCACAGCCTGTTTCTGGATTTGCAGGTGAACAGCCTCCAGACGGTGTGCACCAACATCTACAAG | – | – | – | – | – | – | – | – | – | – | – | – | strong T-cell response
clone 8: positive clone of the DU145 tumor retrogen library; ORF encodes a 291 aa hTRT polypeptide (SEQ.ID.NO.3) (nucleic acid, Human) DNA: ATCCTGGCCAAGTTCCTGCACTGGCTGATGAGTGTGTACGTCGTCGAGCTGCTCAGGTCTTTCTTTTATGTCACGGAGACCACGTTTCAAAAGAACAGGCTCTTTTTCTACCGGAAGAGTGTCTGGAGCAAGTTGCAAAGCATTGGAATCAGACAGCACTTGAAGAGGGTGCAGCTGCGGGAGCTGTCGGAAGCAGAGGTCAGGCAGCATCGGGAAGCCAGGCCCGCCCTGCTGACGTCCAGACTCCGCTTCATCCCCAAGCCTGACGGGCTGCGGCCGATTGTGAACATGGACTACGTCGTGGGAGCCAGAACGTTCCGCAGAGAAAAGAGGGCCGAGCGTCTCACCTCGAGGGTGAAGGCACTGTTCAGCGTGCTCAACTACGAGCGGGCGCGGCGCCCCGGCCTCCTGGGCGCCTCTGTGCTGGGCCTGGACGATATCCACAGGGCCTGGCGCACCTTCGTGCTGCGTGTGCGGGCCCAGGACCCGCCGCCTGAGCTGTACTTTGTCAAGGTGGATGTGACGGGCGCGTACGACACCATCCCCCAGGACAGGCTCACGGAGGTCATCGCCAGCATCATCAAACCCCAGAACACGTACTGCGTGCGTCGGTATGCCGTGGTCCAGAAGGCCGCCCATGGGCACGTCCGCAAGGCCTTCAAGAGCCACGTCTCTACCTTGACAGACCTCCAGCCGTACATGCGACAGTTCGTGGCTCACCTGCAGGAGACCAGCCCGCTGAGGGATGCCGTCGTCATCGAGCAGAGCTCCTCCCTGAATGAGGCCAGCAGTGGCCTCTTCGACGTCTTCCTACGCTTCATGTGCCACCACGCCGTGCGCATCAGGGGCAAGTCCTACGTCCAGTGCCAGGGG | – | – | – | – | – | – | – | – | – | – | – | – | strong T-cell response
